Test [1] has as its target T1, recombinant Trypanosoma brucei AOX (rTAO) (Trypanosoma brucei brucei, UniProt Q26710). Kind of test: biochemical. The following applies: rTAO IC50, membrane-bound protein, 300 μM NADH, MOPS buffer pH 7.5.
In test [2] the target is T2, Arabidopsis thaliana AOX1A (rAtAOX1A) (Arabidopsis thaliana, UniProt Q39219). Kind of test: biochemical. Conditions: rAtAOX1A IC50, membrane-bound protein, 300 μM NADH, MOPS buffer pH 7.5.
Test [3] addresses T2, Arabidopsis thaliana AOX1A (rAtAOX1A). Type of test: biochemical. The following applies: for Fold change of oxygen consumption rate of rAtAOX1A vs control / Effect on oxygen consumption rate of rAtAOX1A (in words): 10 mM effector, membrane-bound protein, 1 mM NADH; for Fold change of oxygen consumption rate of rAtAOX1A vs control: 1 mM KCN (Figure 5C); for Effect on oxygen consumption rate of rAtAOX1A (in words): 1 mM KCN (Figure 5).

For test [4], the target named is T1, recombinant Trypanosoma brucei AOX (rTAO). It counts as biochemical.
The target is the same in test [5]. In words: Quinol kinetics of purified rTAO, Q1H2 oxidation at 278 nm. Type of test: biochemical. Conditions: MOPS pH 7.5. The protocol: (§1) Kinetic analysis of the purified rTAO and rAtAOX1A was performed spectrophotometrically using a Cary 4000 UV spectrophotometer (Varian, UK Ltd, Surrey UK) with the packaged software. All assays were performed in 65 mM MOPS buffer pH 7.5 with different concentrations of quinol-1 as the substrate, measuring the conversion of Q1H2 (ubiquinol-1) to Q1 (ubiquinone-1) at 278 nm (ε = 15,000 M^−1 cm^−1). Q1 was reduced to Q1H2 prior to experimentation via sonication with zinc powder under an inert atmosphere for ~10 min, with the resultant zinc then being removed via centrifugation at 2,000 g.

In test [6] the target is T2, Arabidopsis thaliana AOX1A (rAtAOX1A). Type of test: biochemical. The protocol: as §1

Values joined by “and” are separate entries in the source; they are usually repeats but may differ in a detail not shown here. Equal entries are not always repeated. Where two headings read alike, the source gives them in different places.

T2 sequence (Q39219 63-354): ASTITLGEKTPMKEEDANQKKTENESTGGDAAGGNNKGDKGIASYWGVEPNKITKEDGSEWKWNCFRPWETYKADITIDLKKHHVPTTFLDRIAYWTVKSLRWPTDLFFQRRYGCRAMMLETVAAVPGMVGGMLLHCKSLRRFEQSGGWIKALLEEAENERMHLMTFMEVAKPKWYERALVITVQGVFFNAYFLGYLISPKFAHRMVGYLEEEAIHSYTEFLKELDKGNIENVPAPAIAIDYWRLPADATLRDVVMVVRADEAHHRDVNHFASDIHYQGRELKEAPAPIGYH
T1 sequence (Q26710 25-329): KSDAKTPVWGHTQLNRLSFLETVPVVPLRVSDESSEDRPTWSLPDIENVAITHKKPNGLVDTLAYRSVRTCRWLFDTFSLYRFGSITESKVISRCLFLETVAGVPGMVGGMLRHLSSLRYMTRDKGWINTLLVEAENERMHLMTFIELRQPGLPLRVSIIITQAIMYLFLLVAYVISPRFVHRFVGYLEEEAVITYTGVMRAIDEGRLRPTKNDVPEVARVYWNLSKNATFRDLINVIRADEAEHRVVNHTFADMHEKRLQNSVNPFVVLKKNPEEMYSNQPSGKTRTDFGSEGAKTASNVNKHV

Turning to `CC(/C=C/[C@@]1(C)[C@H](C)CCC(=O)[C@@H]1C)=C\Cc1c(O)c(Cl)c(C)c(C=O)c1O` [AC, ascochlorin], the IC50 in test [1] is 3.8 nM and 3.7 nM; in test [2] it was 14.7 nM.

For `Nc1ncnc2c1ncn2[C@@H]1O[C@H](COP(=O)(O)OP(=O)(O)O)[C@@H](O)[C@H]1O` [ADP, adenosine diphosphate], the “Fold change of oxygen consumption rate of rAtAOX1A vs control” value (“Fold change” below) in test [3] was found to be 1.4 fold.

In test [2], `C/C(=C\Cc1c(O)c(Cl)c(C)c(C=O)c1O)CC/C=C(\C)[C@@H]1CC(=O)C(C)(C)O1` [AF, ascofuranone] came in with an IC50 of 6.21 nM.

Consider `CC(C)=CCC/C(C)=C/Cc1c(O)c(Cl)c(C)c(C=O)c1O` [CB, colletochlorin B], for which the IC50 in test [2] is 2.82 nM and 2.8 nM.

In the case of `CC(C)=CCc1c(O)c(Cl)c(C)c(C=O)c1O` [CD, colletochlorin D], the IC50 in test [1] was 3.73 nM and 3.8 nM; in test [2], 5.76 nM.

Regarding `Nc1nc2c(ncn2[C@@H]2O[C@H](COP(=O)(O)OP(=O)(O)O)[C@@H](O)[C@H]2O)c(=O)[nH]1` [GDP], in test [3], the “Fold change” value stood at 1.4 fold.

As to `O=O` [O2, oxygen], the Km was determined as 1.15 µM in test [4] (membrane samples, 25°C, 1.25 mM NADH, without pyruvate, read-out: Km for O2, rTAO) and 2.41 µM in test [3] (membrane samples, 25°C, 1.25 mM NADH, without pyruvate, read-out: Km for O2, rAtAOX1A).

Turning to `CCCCCCCCOC(=O)c1cc(O)c(O)c(O)c1` [OG, octylgallate], the IC50 in test [1] was found to be 417 nM; in test [2], 1580 nM.

Regarding `COc1c(O)c(C)c(CC=C(C)C)c(O)c1OC` [Q1H2, ubiquinol-1], the Km is 451 µM in test [5] and 26 µM in test [6] (purified rAtAOX1A, without pyruvate, MOPS pH 7.5, read-out: Km for Q1H2, rAtAOX1A).

The compound `O=C(NO)c1ccccc1O` [SHAM, salicylic hydroxamic acid] had an IC50 in test [2] of 33000 nM.

As for `CC(=O)O` [acetic acid], the “Effect on oxygen consumption rate of rAtAOX1A (in words)” value (“Effect on oxygen consumption rate” below) in test [3] is “no stimulation”.

Regarding `O=CC(=O)O` [glyoxylate], in test [3], the “Fold change” value was “more than 7 fold”.

Consider `O=C(O)CC(=O)C(=O)O` [oxaloacetate], for which the “Effect on oxygen consumption rate” value in test [3] was “dramatically promoted”.

Regarding `CCC(=O)O` [propanoic acid], the “Effect on oxygen consumption rate” value in test [3] was “no stimulation”.

Turning to `CC(=O)C(=O)O` [pyruvate], in test [4] (10 mM effector, membrane-bound protein), the “Activation of oxygen consumption rate of rTAO (in words)” value is reported as “but not that of rTAO”. In addition, the “Fold change” value in test [3] is given as “more than 7 fold”. Further, the “Respiratory rate of rAtAOX1A with vs without pyruvate” value in test [3] (10 mM pyruvate, membrane samples, 1.25 mM NADH (Figure 4)) was ~ 6 fold. Also, in test [3] (10 mM pyruvate, membrane-bound protein (Figure 4)), the “Change of Km for O2 of rAtAOX1A” value is given as “increased Km value for O2”. In test [6] (10 mM pyruvate during purification and in the assay, purified protein), the “Change of Km for Q1H2 of rAtAOX1A” value is recorded as “remained unchanged”. In test [6] (10 mM pyruvate during purification and in the assay, purified protein, Q1H2 substrate), the “Change of Vmax of rAtAOX1A” value is recorded as “increased approximately five times”.

Take `O=C(O)CCC(=O)O` [succinate]: in test [3], the “Effect on oxygen consumption rate” value is “dramatically promoted”.

These data come from PMC8569227 (Frontiers in Plant Science, 2021).
